In PubChem BioAssay (NCI):
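These data come from cells grown in 96-well plates and exposed to compound for 48 hours at five concentrations. TGI: total growth inhibition.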

Tests used:
Experiment in all cases: NCI tumour cell line growth inhibition, 48 h
[1] = test system: SN12C renal
[2] = test system: SR leukemia
[3] = test system: SF-268 CNS
[4] = test system: SK-OV-3 ovarian
[5] = test system: M19-MEL melanoma
[6] = test system: HOP-18 NSCLC
[7] = test system: UACC-257 melanoma
[8] = test system: A549 NSCLC
[9] = test system: SNB-19 CNS
[10] = test system: NCI-H23 lung
[11] = test system: UO-31 renal
[12] = test system: NCI-H226 lung
[13] = test system: SF-295 CNS
[14] = test system: LOX IMVI melanoma
[15] = test system: SNB-75 CNS
[16] = test system: OVCAR-4 ovarian
[17] = test system: K-562 leukemia
[18] = test system: NCI-H522 lung
[19] = test system: DLD-1 colon
[20] = test system: HCT-15 colon
[21] = test system: OVCAR-8 ovarian
[22] = test system: SK-MEL-28 melanoma
[23] = test system: CAKI-1 renal
[24] = test system: HL-60(TB) leukemia
[25] = test system: U251 CNS
[26] = test system: LXFL 529 NSCLC
[27] = test system: DMS 273 small cell lung
[28] = test system: OVCAR-3 ovarian
[29] = test system: SF-539 CNS
[30] = test system: TK-10 renal
[31] = test system: IGROV1 ovarian
[32] = test system: ACHN renal
[33] = test system: SK-MEL-2 melanoma
[34] = test system: M14 melanoma
[35] = test system: SNB-78 CNS
[36] = test system: OVCAR-5 ovarian
[37] = test system: RXF 393 renal
[38] = test system: HT29 colon
[39] = test system: SW-620 colon
[40] = test system: A498 renal
[41] = test system: UACC-62 melanoma
[42] = test system: KM12 colon
[43] = test system: XF 498 CNS
[44] = test system: CCRF-CEM leukemia
[45] = test system: MALME-3M melanoma
[46] = test system: MOLT-4 leukemia
[47] = test system: HOP-62 NSCLC
[48] = test system: NCI-H460 lung
[49] = test system: EKVX NSCLC
[50] = test system: KM20L2 colon
[51] = test system: COLO 205 colon
[52] = test system: DMS 114 small cell lung
[53] = test system: HCT-116 colon
[54] = test system: 786-0 renal
[55] = test system: RPMI-8226 leukemia
[56] = test system: HOP-92 NSCLC
[57] = test system: RXF-631 renal
[58] = test system: SK-MEL-5 melanoma
[59] = test system: HCC-2998 colon

Measured: TGI

CC(C)(C)c1cc(C#N)c2c(c1)C(=O)OC2(c1ccccc1)c1ccccc1C#N (centres undefined)
> 100 µM: [1] | [2] | [3] | [4] | [5] | [6] | [7] | [8] | [9] | [10] | [11] | [12] | [13] | [14] | [15] | [16] | [17] | [18] | [19] | [20] | [21] | [22] | [23] | [24] | [25] | [26] | [27] | [28] | [29] | [30] | [31] | [32] | [33] | [34] | [35] | [36] | [37] | [38] | [39] | [40] | [41] | [42] | [43] | [44] | [45] | [46] | [47] | [48] | [49] | [50] | [51] | [52] | [53] | [54]

N#CCc1ccccc1/C(C#N)=C1/OC(=N)C(c2ccccc2CC#N)C1=O (centres undefined)
> 100 µM: [2] | [3] | [4] | [5] | [7] | [55] | [8] | [12] | [13] | [14] | [15] | [17] | [18] | [56] | [22] | [23] | [24] | [26] | [27] | [28] | [29] | [30] | [31] | [32] | [57] | [34] | [58] | [38] | [39] | [41] | [42] | [44] | [46] | [49] | [50] | [53] | [54]

CCOc1ccc2c(c1)[n+]([O-])c(-c1ccc([N+](=O)[O-])cc1)c(N)[n+]2[O-]
> 100 µM: [1] | [2] | [3] | [4] | [5] | [6] | [7] | [8] | [9] | [10] | [11] | [12] | [13] | [15] | [16] | [17] | [18] | [19] | [56] | [21] | [22] | [23] | [24] | [25] | [26] | [27] | [28] | [29] | [31] | [32] | [33] | [57] | [34] | [35] | [36] | [58] | [37] | [38] | [39] | [40] | [42] | [44] | [45] | [46] | [47] | [48] | [49] | [50] | [51] | [52] | [53] | [54]

C#CCOCn1cnc2c(N)ncnc21
> 100 µM: [1] | [2] | [3] | [4] | [5] | [6] | [7] | [55] | [8] | [59] | [9] | [10] | [11] | [12] | [13] | [14] | [15] | [16] | [17] | [18] | [19] | [56] | [21] | [22] | [23] | [25] | [26] | [27] | [28] | [29] | [30] | [31] | [32] | [33] | [57] | [34] | [35] | [36] | [58] | [38] | [39] | [40] | [41] | [42] | [43] | [44] | [45] | [46] | [47] | [48] | [49] | [50] | [51] | [52] | [53] | [54]
